Experimental data published in patent publication US6352960B1, “Controlling agent for agricultural or horticultural bacterial disease” (Meiji Seika Kaisha, Ltd., priority 1998, dated 2002).
Where a name gives a salt, the structure may show the parent alone.

Tests used:
[1] = test system: citrus canker bacterium (Xanthomonas campestris pv. citri); assay: in vitro antibacterial test on PDA culture medium; assay type: cell-based; design: key to growth of bacteria: +++: Colonies grew well; ++: Growth was slightly suppressed; +: Growth was strongly suppressed but proliferation was observed; −: No proliferation was observed; conditions: for growth of bacteria: 28° C., after 3 days
Protocol: (§1) Each agent was dissolved in sterilized water and added to PDA culture medium (Nissui Seiyaku Co., Ltd.) and Japanese apricot canker bacterium (Pseudomonas syringae pv. morsprunorum), vegetables' soft rot disease bacterium (Erwinia carotovora sub-sp. cartovora), and citrus canker bacterium (Xanthomonas campestris pv. citri) were inoculated.
(§2) The Japanese apricot canker bacterium was cultivated at 21° C., the vegetables' soft rot disease bacterium and citrus canker bacterium were cultivated at 28° C. After 3 days from the start of cultivation, the growth of bacteria was monitored.

[2] = test system: vegetables' soft rot disease bacterium (Erwinia carotovora sub-sp. cartovora); assay: in vitro antibacterial test on PDA culture medium; assay type: cell-based; design: key to growth of bacteria: +++: Colonies grew well; ++: Growth was slightly suppressed; +: Growth was strongly suppressed but proliferation was observed; −: No proliferation was observed; conditions: for growth of bacteria: 28° C., after 3 days
Protocol: as §1, §2

[3] = test system: Japanese apricot canker bacterium (Pseudomonas syringae pv. morsprunorum); assay: in vitro antibacterial test on PDA culture medium; assay type: cell-based; design: key to growth of bacteria: +++: Colonies grew well; ++: Growth was slightly suppressed; +: Growth was strongly suppressed but proliferation was observed; −: No proliferation was observed; conditions: for growth of bacteria: 21° C., after 3 days
Protocol: as §1, §2

Celery cabbage soft rot = assay: Controlling effect on Celery cabbage soft rot, field test; assay type: in vivo; conditions: sprayed 3 times at 7-day intervals
Protocol: (§3) Preventive value=(1−disease severity of treated lot/disease severity of non-treated lot)×100
(§4) (Disease severity may be replaced by degree of damage or ratio of damage.)
Commercially available Agrepto wettable powder containing 25% of streptomycin sulfate (20% as streptomycin) or commercially available Iminoctadine ABS salt [trade name: Bellkute wettable powder (40%)] was diluted to a predetermined concentration and tested. The preparations produced according to Preparation Examples 1 and 3 were also diluted to predetermined concentrations. In early August, Celery cabbages were sown in 5.2 m^2 per lot in triplicate. From 20 September when the plant reached 10-leaf stage, the predetermined agents were continually sprayed 3 times with intervals of 7 days. In late October, the disease severity and degree of damage of Celery cabbage soft rot were investigated using 4-rank indices.
1: Only a portion of outer leaves damaged;
2: A portion of outer leaves and head portion damaged; and
3: Most part of head portion damaged.
Degree of damage=Σ(Index×the number of individuals)÷(the number of individuals searched×3)×100

[4] = test system: Japanese apricot canker bacterium (Pseudomonas syringae pv. morsprunorum); assay: Controlling effect on Japanese apricot bacterial canker (2), potted seedlings, spray inoculation; assay type: in vivo; conditions: leaf spray before inoculation, after 7 days
Protocol: as §3
Japanese apricot seedlings rested for the winter season in the open field were cut to the height of 60 cm and transplanted to 1/5000 a Wagner pots and allowed to sprout and develop leaves in a greenhouse were tested. After giving fine bruises to the leaves with Carborandum, water was sprayed sufficiently to flow away the Carborandum. After air drying, the agents diluted to predetermined concentrations with water were sprayed onto the leaves, which were air dried again. Japanese apricot canker bacterium (Pseudomonas syringae pv. morsprunorum) preliminarily cultivated in PPG medium (200 g of potato, 3 g of disodium phosphate (dodecahydrate), 0.5 g of dikalium phosphate, 5 g of peptone, 3 g of sodium chloride, 5 g of glucose, 1 L of distilled water) was inoculated by spraying together with the medium. The inoculated plants were placed under controlled humid conditions (temperature 20° C., humidity 99% to 100%) for 40 hours and then transferred to a greenhouse to allow the disease to emerge. After 7 days, the lesion area in each lot was measured and disease severity and preventive value were calculated according to the following indices.
1: Several lesions on the leaves of one branch;
2: The damaged area was less than ¼ of the total area of the leaves on one branch;
3: The damaged area was from ¼ to less than ½ of the total area of the leaves on one branch;
4: The damaged area was from ½ to less than ⅔ of the total area of the leaves on one branch; and
5: The damaged area was ⅔ or more of the total area of the leaves on one branch.
Disease severity=Σ(Index×The number of data)÷(Total number of data×5)×100

[5] = test system: Japanese apricot bacterial canker; assay: Controlling effect on Japanese apricot bacterial canker (1), field trees, spray; assay type: in vivo; conditions: sprayed four times at 10-day intervals
Protocol: as §3
Commercially available Agrepto wettable powder containing 25% of streptomycin sulfate (20% as streptomycin) or commercially available Iminoctadine ABS salt [trade name: Bellkute wettable powder (40%)] was diluted to a predetermined concentration and tested. Also, the preparation produced according to Preparation Example 2 was diluted to a predetermined concentration and tested.
Young 5-year old Japanese apricot trees which frequently suffered from Japanese apricot bacterial canker in the preceding year, were tested. Predetermined agents were continually sprayed four times with intervals of 10 days starting from early April. In May, the disease severity of Japanese apricot bacterial canker was searched on 100 fruits per tree for total 5 trees in each lot and the results were evaluated by 5-rank indices.
The damaged fruits were searched and disease severity and preventive value were calculated using the indices and equation below.
2: Medium=6 to 15 lesions
6: Extreme=31 or more lesions or with cracks
Disease severity=Σ(Index×The number of damaged fruits per degree)÷(6×The number of tested fruits)×100

[6] = test system: citrus canker bacterium (Xanthomonas campestris pv. citri); assay: Controlling effect on citrus canker, pot-grown Watson pomelo leaves; assay type: in vivo; conditions: 20 leaves, after 1 month
Protocol: as §3, §4
Commercially available Agrepto wettable powder containing 25% of streptomycin sulfate (20% as streptomycin) or commercially available Iminoctadine ABS salt [trade name: Bellkute wettable powder (40%)] was diluted to a predetermined concentration and tested. The preparations produced according to Preparation Examples 2 and 4 were also diluted to predetermined concentrations. 20 new leaves of pot-grown Watson pomelo were tested for each of the preparations. After wounding the leaves with a needle, each predetermined agent solution was sprayed thereon and the leaves were air dried. Then, citrus canker bacterium (Xanthomonas campestris pv. citri) was inoculated with the density of 1×10^6 cells. Thereafter, the trees were put into controlled cultivation in a greenhouse. After 1 month, the emergence of citrus canker was investigated.

genus Pseudomonas = conditions: from Japanese Patent Publication No. Sho 43-27335; cited from earlier work
genus Xanthomonas = conditions: from Japanese Patent Publication No. Sho 43-27335; cited from earlier work

Structure (SMILES): [H]/N=C(/N)N[C@H]1[C@H](O)[C@@H](O)[C@H](O[C@@H]2O[C@@H](C)[C@](O)(C=O)[C@H]2O[C@@H]2O[C@@H](CO)[C@H](O)[C@@H](O)[C@@H]2NC)[C@@H](N/C(N)=N\[H])[C@@H]1O [Streptomycin sulfate, streptomycin sulfate]
- growth of bacteria ([1]; 1 ppm in PDA medium): ++
- growth of bacteria ([1]; 10 ppm in PDA medium): +
- growth of bacteria ([1]; 100 ppm in PDA medium): −
- growth of bacteria ([2]; 1 ppm in PDA medium): +
- growth of bacteria ([2]; 10 ppm in PDA medium): −
- growth of bacteria ([2]; 100 ppm in PDA medium): −
- growth of bacteria ([3]; 1 ppm in PDA medium): ++
- growth of bacteria ([3]; 10 ppm in PDA medium): +
- growth of bacteria ([3]; 100 ppm in PDA medium): −
- Degree of damage (Celery cabbage soft rot; 125 ppm): 4.6
- Preventive value (Celery cabbage soft rot; 125 ppm): 79
- The number of individuals damaged (Celery cabbage soft rot; 125 ppm): 10
- Disease severity ([4]; 125 ppm): 24
- Preventive value ([4]; 125 ppm): 67
- Disease severity ([5]; 125 ppm): 1.6
- Preventive value ([5]; 125 ppm): 57
- The number of damaged fruits ([5]; 125 ppm): 23
- Preventive value ([6]; 62.5 ppm): 60
- Ratio of suffering leaves ([6]; 62.5 ppm): 40
- The number of suffering leaves ([6]; 62.5 ppm): 8
- Preventive value ([6]; 125 ppm): 80
- Ratio of suffering leaves ([6]; 125 ppm): 20
- The number of suffering leaves ([6]; 125 ppm): 4
- Preventive value ([6]; 500 ppm): 95
- Ratio of suffering leaves ([6]; 500 ppm): 5
- The number of suffering leaves ([6]; 500 ppm): 1

Structure (SMILES): Cl.N=C(N)NCCCCCCCCCCCCNCCCCCCCCCCCCNC(=N)N [bis (12-guanidinododecyl) amine hydrochloride]
- in vitro antibacterial activity against plant pathogenic bacteria (genus Pseudomonas): revealed to have in vitro antibacterial activity
- in vitro antibacterial activity against plant pathogenic bacteria (genus Xanthomonas): revealed to have in vitro antibacterial activity

Structure (SMILES): N=C(N)NCCCCCCCCNCCCCCCCCNC(=N)N [Iminoctadine ABS salt, bis(8-guanidinooctyl)amine]
- growth of bacteria ([1]; 1 ppm in PDA medium): +++
- growth of bacteria ([1]; 10 ppm in PDA medium): +++
- growth of bacteria ([1]; 100 ppm in PDA medium): +++
- suppression of growth in vitro ([1]; even added at 100 ppm): did not suppress the growth
- growth of bacteria ([2]; 1 ppm in PDA medium): +++
- growth of bacteria ([2]; 10 ppm in PDA medium): +++
- growth of bacteria ([2]; 100 ppm in PDA medium): +++
- suppression of growth in vitro ([2]; even added at 100 ppm): did not suppress the growth
- growth of bacteria ([3]; 1 ppm in PDA medium): +++
- growth of bacteria ([3]; 10 ppm in PDA medium): +++
- growth of bacteria ([3]; 100 ppm in PDA medium): ++
- suppression of growth in vitro ([3]; even added at 100 ppm): did not suppress the growth
- Degree of damage (Celery cabbage soft rot; 200 ppm): 6.4
- Preventive value (Celery cabbage soft rot; 200 ppm): 71
- The number of individuals damaged (Celery cabbage soft rot; 200 ppm): 12
- Disease severity ([4]; 200 ppm): 19
- Preventive value ([4]; 200 ppm): 73
- Disease severity ([5]; 200 ppm): 1.2
- Preventive value ([5]; 200 ppm): 68
- The number of damaged fruits ([5]; 200 ppm): 18
- Preventive value ([6]; 50 ppm): 55
- Ratio of suffering leaves ([6]; 50 ppm): 45
- The number of suffering leaves ([6]; 50 ppm): 9
- Preventive value ([6]; 100 ppm): 75
- Ratio of suffering leaves ([6]; 100 ppm): 25
- The number of suffering leaves ([6]; 100 ppm): 5
- Preventive value ([6]; 400 ppm): 85
- Ratio of suffering leaves ([6]; 400 ppm): 15
- The number of suffering leaves ([6]; 400 ppm): 3

Structure (SMILES): CCn1cc(C(=O)O)c(=O)c2cc3c(cc21)OCO3 [Oxolinic acid, oxolinic acid]
- growth of bacteria ([1]; 1 ppm in PDA medium): +++
- growth of bacteria ([1]; 10 ppm in PDA medium): ++
- growth of bacteria ([2]; 1 ppm in PDA medium): −
- growth of bacteria ([2]; 10 ppm in PDA medium): −
- growth of bacteria ([3]; 1 ppm in PDA medium): ++
- growth of bacteria ([3]; 10 ppm in PDA medium): −
- Degree of damage (Celery cabbage soft rot; 100 ppm): 3.3
- Preventive value (Celery cabbage soft rot; 100 ppm): 85
- The number of individuals damaged (Celery cabbage soft rot; 100 ppm): 4

Structure (SMILES): N=C(N)NCCCCCCCCNCCCCCCCCNC(=N)N.O=S(=O)(O)O [bis (8-guanidiooctyl) amine sulfate]
- in vitro antibacterial activity against plant pathogenic bacteria (genus Pseudomonas): no activity
- in vitro antibacterial activity against plant pathogenic bacteria (genus Xanthomonas): no activity

Structure (SMILES): N=C(N)NCCCCCCCCCCNCCCCCCCCCCNC(=N)N.O=S(=O)(O)O [bis (10-guanidinodecyl) amine sulfate]
- in vitro antibacterial activity against plant pathogenic bacteria (genus Pseudomonas): revealed to have in vitro antibacterial activity
- in vitro antibacterial activity against plant pathogenic bacteria (genus Xanthomonas): revealed to have in vitro antibacterial activity
